Measured values published in US20250325552A1, “SUBSTITUTED THIADIAZOLYL DERIVATIVES AS DNA POLYMERASE THETA INHIBITORS” (IDEAYA Biosciences, Inc., priority 2020, published 2025).

The molecules below were run against Polθ theta (1-899) (hPolQ) (Homo sapiens (Human), UniProt O75417) (assay: Biological Assay 1: Polθ ATPase activity, NADH oxidation-coupled enzymatic assay (10 nM enzyme, 30 min)). Settings: Polθ (1-899) 10 nM, 100 μM ATP, 300 nM dT50 ssDNA; Examples 1 to 268; read-out: ATPase NADH coupling:Standard Screening:hPolQ IC50.
Chain of Polθ theta (1-899) (hPolQ) (O75417 1-899): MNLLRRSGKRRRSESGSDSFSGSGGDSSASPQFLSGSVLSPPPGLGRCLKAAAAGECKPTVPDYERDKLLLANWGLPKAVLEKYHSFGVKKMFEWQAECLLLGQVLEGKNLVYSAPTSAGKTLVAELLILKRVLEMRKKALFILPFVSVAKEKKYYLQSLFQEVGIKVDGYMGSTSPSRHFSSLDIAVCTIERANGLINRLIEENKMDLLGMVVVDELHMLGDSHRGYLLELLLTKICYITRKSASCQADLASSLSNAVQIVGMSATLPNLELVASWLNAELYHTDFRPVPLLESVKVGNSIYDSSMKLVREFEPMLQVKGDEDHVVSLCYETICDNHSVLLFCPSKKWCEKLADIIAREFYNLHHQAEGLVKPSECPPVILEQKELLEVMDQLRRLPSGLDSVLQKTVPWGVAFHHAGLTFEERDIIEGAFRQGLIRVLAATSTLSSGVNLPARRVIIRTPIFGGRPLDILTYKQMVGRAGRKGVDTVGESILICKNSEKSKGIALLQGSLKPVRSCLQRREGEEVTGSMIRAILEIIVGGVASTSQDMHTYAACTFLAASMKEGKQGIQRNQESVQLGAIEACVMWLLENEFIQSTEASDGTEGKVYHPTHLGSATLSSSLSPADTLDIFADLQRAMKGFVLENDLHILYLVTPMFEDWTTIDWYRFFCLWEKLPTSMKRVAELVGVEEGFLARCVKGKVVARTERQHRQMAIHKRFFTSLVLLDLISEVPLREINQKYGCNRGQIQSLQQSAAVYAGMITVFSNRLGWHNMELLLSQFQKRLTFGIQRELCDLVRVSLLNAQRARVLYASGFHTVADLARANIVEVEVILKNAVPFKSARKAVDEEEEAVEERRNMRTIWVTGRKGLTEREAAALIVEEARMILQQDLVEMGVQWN
Format: biochemical
Description: The ability of the compounds of Formula (I), (II), (III), (IV), or Table 1 (Examples 1 to Example 268) to inhibit ATPase activity of Polθ theta (1-899) was determined using the assay described below.
Polθ Theta ATPase activity was determined by measuring the rate of ATP turn over in a NADH oxidation-coupled enzymatic assay. 10-point dilution series of compounds were used in a 384 well format for the inhibition assays. Polθ theta (1-899) (10 nM) in assay buffer (20 mM Tris HCl (pH 7.80), 80 mM KCl, 10 mM MgCl2, 1 mM DTT, 0.01% BSA, 0.01% Tween, 5% glycerol) was transferred to the test wells (20 μL), except the low control wells (20 μL of assay buffer was added to the low control wells). The plate was then incubated at room temperature for 15 min. An equal volume (20 μL) of 100 μM ATP, 300 nM dT50 (single-stranded DNA (ssDNA) containing 50 thymine bases), 300 μM NADH, 6 mM PEP, 10 U/mL lactate dehydrogenase and U/mL pyruvate kinase in assay buffer was added to all the test wells. The plate was then centrifuged at 1000 rpm for 1 min. The reaction was monitored for 30 min by measuring absorbance (λ=340 nm) in a Tecan Spark multimode plate reader every minute. The high control (DMSO with enzyme) with low absorbance intensity represents no inhibition of ATPase reaction while the low control (DMSO with buffer) with high absorbance intensity represents full inhibition of ATPase activity. Slope of the reaction progress curves were used to calculate the rate of ATP hydrolysis. The rates were used to determine the percent inhibition using a four-parameter inhibition model to generate IC50, Hill slope and max inhibition.

IC50 [nM] | Compound
≤ 200 | Cc1cc(-c2cc(Cl)ncc2OC(F)F)c(C(=O)Nc2nnc(OC[C@H]3CCOC3)s2)cn1 (single isomer, unassigned) [Example 257]
≤ 200 | Cc1cc(-c2cc(Cl)ncc2OC(F)F)c(C(=O)Nc2nnc(OC[C@@H]3CCOC3)s2)cn1 (single isomer, unassigned) [Example 258]
≤ 200 | COc1cnc(Cl)cc1-c1cc(C)ncc1C(=O)Nc1nnc(OC[C@@]2(F)CCOC2)s1 (single isomer, unassigned) [Example 263]
≤ 200 | COc1cnc(Cl)cc1-c1cc(C)ncc1C(=O)Nc1nnc(OC[C@]2(F)CCOC2)s1 (single isomer, unassigned) [Example 264]
≤ 200 | COc1cnc(Cl)cc1-c1cc(C)ncc1C(=O)Nc1nnc(OC[C@@H]2COC[C@@H]2C)s1 (single isomer, unassigned) [Example 265]
≤ 200 | COc1cnc(Cl)cc1-c1cc(C)ncc1C(=O)Nc1nnc(OC[C@@H]2COC[C@H]2C)s1 (single isomer, unassigned) [Example 266]
≤ 200 | COc1cnc(Cl)cc1-c1cc(C)ncc1C(=O)Nc1nnc(OC[C@H]2COC[C@H]2C)s1 (single isomer, unassigned) [Example 267]
≤ 200 | COc1cnc(Cl)cc1-c1cc(C)ncc1C(=O)Nc1nnc(OC[C@H]2COC[C@@H]2C)s1 (single isomer, unassigned) [Example 268]
≤ 200 | COc1cnc(Cl)cc1-c1cc(C)ncc1C(=O)Nc1nnc(OCC2CCOC2)s1 (stereo in doubt) [Example 170, (R)-2′-chloro-5′-methoxy-6-methyl-N-(5-((tetrahydrofuran-3-yl)methoxy)-1,3,4-thiadiazol-2-yl)-(4,4′-bipyridine)-3-carboxamide]
≤ 200 | COc1cnc(Cl)cc1-c1cc(C)ncc1C(=O)Nc1nnc(OCC2CCOC2)s1 (stereo in doubt) [Example 171, (S)-2′-chloro-5′-methoxy-6-methyl-N-(5-((tetrahydrofuran-3-yl)methoxy)-1,3,4-thiadiazol-2-yl)-(4,4′-bipyridine)-3-carboxamide]
≤ 200 | COc1cnc(Cl)c(F)c1-c1cc(C)ncc1C(=O)Nc1nnc(OCC2CCOC2)s1 (stereo in doubt) [Example 183, 2′-chloro-3′-fluoro-5′-methoxy-6-methyl-N-(5-(((R)-tetrahydrofuran-3-yl)methoxy)-1,3,4-thiadiazol-2-yl)-(4,4′-bipyridine)-3-carboxamide]
≤ 200 | COc1cnc(Cl)c(F)c1-c1cc(C)ncc1C(=O)Nc1nnc(OCC2CCOC2)s1 (stereo in doubt) [Example 184, 2′-chloro-3′-fluoro-5′-methoxy-6-methyl-N-(5-(((S)-tetrahydrofuran-3-yl)methoxy)-1,3,4-thiadiazol-2-yl)-(4,4′-bipyridine)-3-carboxamide]
≤ 200 | COc1cnc(Cl)cc1-c1cc(C)ncc1C(=O)Nc1nnc(OCC2COC(C)(C)C2)s1 (stereo in doubt) [Example 188, (R)-2′-chloro-N-(5-((5,5-dimethyltetrahydrofuran-3-yl)methoxy)-1,3,4-thiadiazol-2-yl)-5′-methoxy-6-methyl-(4,4′-bipyridine)-3-carboxamide]
≤ 200 | COc1cnc(Cl)cc1-c1cc(C)ncc1C(=O)Nc1nnc(OCC2COC(C)(C)C2)s1 (stereo in doubt) [Example 189, (S)-2′-chloro-N-(5-((5,5-dimethyltetrahydrofuran-3-yl)methoxy)-1,3,4-thiadiazol-2-yl)-5′-methoxy-6-methyl-(4,4′-bipyridine)-3-carboxamide]
≤ 200 | COc1cnc(Cl)cc1-c1cc(C)ncc1C(=O)Nc1nnc(OC[C@H]2C[C@@H]2F)s1 (stereo in doubt) [Example 207, 2′-chloro-N-(5-(((1R,2S)-2-fluorocyclopropyl)methoxy)-1,3,4-thiadiazol-2-yl)-5′-methoxy-6-methyl-(4,4′-bipyridine)-3-carboxamide]
≤ 200 | COc1ccccc1-c1cc(C)ncc1C(=O)Nc1nnc(OCc2cccc(CO)n2)s1 [Example 6, N-(5-((6-(hydroxymethyl)pyridin-2-yl)methoxy)-1,3,4-thiadiazol-2-yl)-4-(2-methoxyphenyl)-6-methylpyridine-3-carboxamide]

IC50 [nM] | Compound
≤ 200 | COc1ccccc1-c1cc(C)ncc1C(=O)Nc1nnc(OCc2ccc(C3(CO)CC3)cn2)s1 [Example 7, N-(5-((5-(1-(hydroxymethyl)cyclopropyl)pyridin-2-yl)methoxy)-1,3,4-thiadiazol-2-yl)-4-(2-methoxyphenyl)-6-methylnicotinamide]
≤ 200 | COc1cnc(Cl)cc1-c1cc(C)ncc1C(=O)Nc1nnc(OCc2ccc(Cl)cn2)s1 [Example 8, 2′-chloro-N-(5-((5-chloropyridin-2-yl)methoxy)-1,3,4-thiadiazol-2-yl)-5′-methoxy-6-methyl-[4,4′-bipyridine]-3-carboxamide]
1000 to 10000 | COc1ccccc1-c1nc2cccnc2cc1C(=O)Nc1nnc(OCc2ccc(Cl)cn2)s1 [Example 9, N-(5-((5-chloropyridin-2-yl)methoxy)-1,3,4-thiadiazol-2-yl)-2-(2-methoxyphenyl)-1,5-naphthyridine-3-carboxamide]
500 to 1000 | COc1ccccc1-c1cc(C)ncc1C(=O)Nc1nnc(OCc2nccc3[nH]ncc23)s1 [Example 10, N-(5-((1H-pyrazolo(4,3-c)pyridin-4-yl)methoxy)-1,3,4-thiadiazol-2-yl)-4-(2-methoxyphenyl)-6-methylnicotinamide]
≤ 200 | COc1ccccc1-c1cc(C)ncc1C(=O)Nc1nnc(O[C@@H](C)c2ccc(Cl)cn2)s1 [Example 11, (S)—N-(5-(1-(5-chloropyridin-2-yl)ethoxy)-1,3,4-thiadiazol-2-yl)-4-(2-methoxyphenyl)-6-methylnicotinamide]
1000 to 10000 | COc1ccccc1-c1cc(C)ncc1C(=O)Nc1nnc(O[C@H](C)c2ccc(Cl)cn2)s1 [Example 12, (R)—N-(5-(1-(5-chloropyridin-2-yl)ethoxy)-1,3,4-thiadiazol-2-yl)-4-(2-methoxyphenyl)-6-methylnicotinamide]
≤ 200 | COc1ccc(F)cc1-c1cc(C)ncc1C(=O)Nc1nnc(OCc2ccc(Cl)cn2)s1 [Example 13, N-(5-((5-chloropyridin-2-yl)methoxy)-1,3,4-thiadiazol-2-yl)-4-(5-fluoro-2-methoxyphenyl)-6-methylnicotinamide]
≤ 200 | COc1cccc(F)c1-c1cc(C)ncc1C(=O)Nc1nnc(OCc2ccc(CO)cn2)s1 [Example 14, 4-(2-fluoro-6-methoxyphenyl)-N-(5-((5-(hydroxymethyl)pyridin-2-yl)methoxy)-1,3,4-thiadiazol-2-yl)-6-methylpyridine-3-carboxamide]
≤ 200 | COc1cccc(F)c1-c1cc(C)ncc1C(=O)Nc1nnc(OCc2ccn(C)n2)s1 [Example 15, 4-(2-fluoro-6-methoxyphenyl)-6-methyl-N-(5-((1-methylpyrazol-3-yl)methoxy)-1,3,4-thiadiazol-2-yl)pyridine-3-carboxamide]
≤ 200 | COc1c(F)cccc1-c1cc(C)ncc1C(=O)Nc1nnc(OCc2ccc(Cl)cn2)s1 [Example 16, N-(5-((5-chloropyridin-2-yl)methoxy)-1,3,4-thiadiazol-2-yl)-4-(3-fluoro-2-methoxyphenyl)-6-methylnicotinamide]
≤ 200 | Cc1cc(-c2ccccc2OC(F)F)c(C(=O)Nc2nnc(OCc3ccc(CO)cn3)s2)cn1 [Example 17, 4-(2-(difluoromethoxy)phenyl)-N-(5-((5-(hydroxymethyl)pyridin-2-yl)methoxy)-1,3,4-thiadiazol-2-yl)-6-methylpyridine-3-carboxamide]
1000 to 10000 | Cc1cc(C2CCOCC2)c(C(=O)Nc2nnc(OCc3ccc(Cl)cn3)s2)cn1 [Example 18, N-(5-((5-chloropyridin-2-yl)methoxy)-1,3,4-thiadiazol-2-yl)-6-methyl-4-(tetrahydro-2H-pyran-4-yl)nicotinamide]
1000 to 10000 | COc1cccc(F)c1-c1cccnc1C(=O)Nc1nnc(OCc2ccc(Cl)cn2)s1 [Example 19, N-(5-((5-chloropyridin-2-yl)methoxy)-1,3,4-thiadiazol-2-yl)-3-(2-fluoro-6-methoxyphenyl)picolinamide]
≤ 200 | COc1ccc(COc2nnc(NC(=O)c3cnc(C)cc3-c3c(F)cccc3OC)s2)nc1 [Example 20, 4-(2-fluoro-6-methoxyphenyl)-N-(5-((5-methoxypyridin-2-yl)methoxy)-1,3,4-thiadiazol-2-yl)-6-methylpyridine-3-carboxamide]
≤ 200 | COc1c(C#N)cccc1-c1cc(C)ncc1C(=O)Nc1nnc(OCc2ccc(Cl)cn2)s1 [Example 21, N-(5-((5-chloropyridin-2-yl)methoxy)-1,3,4-thiadiazol-2-yl)-4-(3-cyano-2-methoxyphenyl)-6-methylnicotinamide]
